Laboratory results as given in ChEMBL document CHEMBL6078637, “Cyclic Diguanylate G-Quadruplex Inducer-Quorum Sensing Inhibitor Hybrids as Bifunctional Anti-biofilm and Anti-virulence Agents Against Pseudomonas aeruginosa” (J Med Chem, 2024).
pIC50: −log10 of the molar value. Active and inactive are the calls of the source. No cut-off for these calls is given here.

Tests used:
[1] = Inhibition of quorum sensing system in Pseudomonas aeruginosa PAO1 harboring mini-ctx-lasB-lacZ at 10 uM measured after 16 hrs by ONPG test relative to control
Pseudomonas aeruginosa [2] = assay: Antibiofilm activity against Pseudomonas aeruginosa PAO1 harboring wspF mutant assessed as inhibition rate at 1.25 uM incubated for 24 hrs by absorbance based assay relative to control; format: functional
Pseudomonas aeruginosa [3] = assay: Antibiofilm activity against Pseudomonas aeruginosa PAO1 harboring wspF mutant assessed as inhibition rate at 10 uM incubated for 24 hrs by absorbance based assay relative to control; format: functional
Pseudomonas aeruginosa [4] = assay: Antibiofilm activity against Pseudomonas aeruginosa PAO1 harboring wspF mutant incubated for 24 hrs by absorbance based assay; format: functional, organism-based
Pseudomonas aeruginosa [5] = assay: Antibacterial activity against Pseudomonas aeruginosa PAO1 incubated for 24 hrs by absorbance based assay; format: functional
Pseudomonas aeruginosa [6] = assay: Antivirulence activity against Pseudomonas aeruginosa PAO1 assessed as reduction in elastase level incubated for 24 hrs by elastin-Congo red staining based analysis; format: functional, organism-based; conditions: dose <= 10.0 µM
Pseudomonas aeruginosa [7] = assay: Antivirulence activity against Pseudomonas aeruginosa PAO1 assessed as reduction in rhamnolipid level incubated for 24 hrs by orcinol based analysis; format: functional, organism-based; conditions: dose <= 10.0 µM
Pseudomonas aeruginosa [8] = assay: Antivirulence activity against Pseudomonas aeruginosa PAO1 assessed as reduction in pyocyanin level incubated for 24 hrs by absorbance based assay; format: functional, organism-based; conditions: dose <= 10.0 µM
Pseudomonas aeruginosa [9] = assay: Antivirulence activity against Pseudomonas aeruginosa PAO1 assessed as reduction in elastase level at 10 uM incubated for 24 hrs by elastin-Congo red staining based analysis relative to control; format: functional; parameters: scale not given: the % may be the effect or the level left
Pseudomonas aeruginosa [10] = assay: Antivirulence activity against Pseudomonas aeruginosa PAO1 assessed as reduction in pyocyanin level at 10 uM incubated for 24 hrs by absorbance based assay relative to control; format: functional; parameters: scale not given: the % may be the effect or the level left
Pseudomonas aeruginosa [11] = assay: Antivirulence activity against Pseudomonas aeruginosa PAO1 assessed as reduction in rhamnolipid level at 10 uM incubated for 24 hrs by orcinol based analysis; format: functional, organism-based
Pseudomonas aeruginosa [12] = assay: Antivirulence activity against Pseudomonas aeruginosa PAO1 assessed as reduction in hemolysin level at 10 uM preincubated for 24 hrs followed by addition of erythrocytes measured after 30 mins by absorbance based analysis relative to control; format: functional; parameters: scale not given: the % may be the effect or the level left
Pseudomonas aeruginosa [13] = assay: Inhibition of beta-galactosidase in Pseudomonas aeruginosa PAO1 harboring mini-ctx-lacZ at 10 uM incubated for 6 hrs by ONPG test relative to control
Pseudomonas aeruginosa [14] = assay: Inhibition of beta-galactosidase in Pseudomonas aeruginosa PAO1 harboring mini-ctx-lasB-lacZ at 10 uM incubated for 6 hrs by ONPG test relative to control
Pseudomonas aeruginosa [15] = assay: Inhibition of beta-galactosidase in Pseudomonas aeruginosa PAO1 harboring mini-ctx-pqsA-lacZ at 10 uM incubated for 6 hrs by ONPG test relative to control
Pseudomonas aeruginosa [16] = assay: Inhibition of beta-galactosidase in Pseudomonas aeruginosa PAO1 harboring mini-ctx-lasB-lacZ incubated for 6 hrs by ONPG test; conditions: dose <= 10.0 µM
Pseudomonas aeruginosa [17] = assay: Inhibition of beta-galactosidase in Pseudomonas aeruginosa PAO1 harboring mini-ctx-pqsA-lacZ incubated for 6 hrs by ONPG test; conditions: dose <= 10.0 µM
Pseudomonas aeruginosa [18] = assay: Inhibition of beta-galactosidase in Pseudomonas aeruginosa PAO1 harboring mini-ctx-rhlA-lacZ at 10 uM incubated for 6 hrs by ONPG test relative to control
Pseudomonas aeruginosa [19] = assay: Inhibition of swarming motility of Pseudomonas aeruginosa PAO1 incubated overnight; format: functional, organism-based; conditions: dose <= 10.0 µM
Pseudomonas aeruginosa [20] = assay: Inhibition of swimming motility of Pseudomonas aeruginosa PAO1 incubated overnight; format: functional, organism-based; conditions: dose <= 10.0 µM
Pseudomonas aeruginosa [21] = assay: Inhibition of twitching motility of Pseudomonas aeruginosa PAO1 incubated overnight by crystal voilet staining based analysis; format: functional, organism-based; conditions: dose <= 10.0 µM
Pseudomonas aeruginosa [22] = assay: Inhibition of swarming motility of Pseudomonas aeruginosa PAO1 at 10 uM incubated overnight; format: functional, organism-based
Pseudomonas aeruginosa [23] = assay: Inhibition of swimming motility of Pseudomonas aeruginosa PAO1 at 10 uM incubated overnight relative to control; format: functional
Pseudomonas aeruginosa [24] = assay: Inhibition of twitching motility of Pseudomonas aeruginosa PAO1 at 10 uM incubated overnight by crystal voilet staining based analysis; format: functional, organism-based
Pseudomonas aeruginosa [25] = assay: Downregulation of lasB mRNA level in Pseudomonas aeruginosa PAO1 at 10 uM by RT-qPCR analysis; format: functional, organism-based
Pseudomonas aeruginosa [26] = assay: Downregulation of rhlA mRNA level in Pseudomonas aeruginosa PAO1 at 10 uM by RT-qPCR analysis; format: functional, organism-based
Pseudomonas aeruginosa [27] = assay: Downregulation of rhlR mRNA level in Pseudomonas aeruginosa PAO1 at 10 uM by RT-qPCR analysis; format: functional, organism-based
Pseudomonas aeruginosa [28] = assay: Downregulation of lasR mRNA level in Pseudomonas aeruginosa PAO1 at 10 uM by RT-qPCR analysis; format: functional, organism-based
Pseudomonas aeruginosa [29] = assay: Downregulation of pqsR mRNA level in Pseudomonas aeruginosa PAO1 at 10 uM by RT-qPCR analysis; format: functional, organism-based
Pseudomonas aeruginosa [30] = assay: Downregulation of pelA mRNA level in Pseudomonas aeruginosa PAO1 at 10 uM by RT-qPCR analysis; format: functional, organism-based
DNA [31] = assay: Binding affinity to pBR322 DNA (unknown origin) assessed as DNA embedding toxicity at 50 uM preincubated for 10 mins followed by Topo I addition measured after 1 hr by TO dye based PAGE analysis; format: nucleic-acid assay; conditions: time 70.0 min
DNA [32] = assay: Binding affinity to pBR322 DNA (unknown origin) assessed as DNA migration at 50 uM preincubated for 10 mins followed by Topo I addition measured after 1 hr by TO dye based PAGE analysis; format: nucleic-acid assay; conditions: time 70.0 min
[33] = Hemolytic activity in rabbit erythrocytes assessed as damage in cell membrane integrity at 100 uM incubated for 4 hrs by absorbance based assay; format: toxicity, Oryctolagus cuniculus; conditions: erythrocyte
Vero = assay: Cytotoxicity against African green monkey Vero cells at 12.5 uM incubated for 24 hrs by MTT assay; format: toxicity, cell-based; conditions: chlorocebus sabaeus
Pseudomonas aeruginosa [34] = assay: Synergistic antibacterial activity against Pseudomonas aeruginosa PAO1 assessed as bacterial growth inhibition at 20 uM incubated for 24 hrs in presence of tetracycline by CFU counting method; format: functional, organism-based
[35] = Toxicity in Caenorhabditis elegans assessed as nematode survival upto 100 uM incubated for 96 hrs
[36] = Toxicity in Caenorhabditis elegans infected with Pseudomonas aeruginosa PAO1 assessed as nematode survival at 10 uM incubated for 48 hrs
[37] = Toxicity in Caenorhabditis elegans infected with Pseudomonas aeruginosa PAO1 assessed as nematode survival at 10 uM incubated for 48 hrs in presence of tetracycline
[38] = Toxicity in Caenorhabditis elegans infected with Pseudomonas aeruginosa PAO1 assessed as reduction in nematode mortality rate at 10 uM incubated for 48 hrs in presence of TOB; parameters: scale not given: the % may be the effect or the level left
[39] = Toxicity in Caenorhabditis elegans infected with hyper-biofilm phenotype Pseudomonas aeruginosa PAO1 harboring wspF mutant assessed as nematode death at 10 uM incubated for 48 hrs in presence of TOB
[40] = Toxicity in Caenorhabditis elegans infected with hyper-biofilm phenotype Pseudomonas aeruginosa PAO1 harboring wspF mutant assessed as nematode death at 10 uM incubated for 48 hrs in presence of tetracycline
Pseudomonas aeruginosa [41] = assay: Synergistic inhibition of bacterial virulence of Pseudomonas aeruginosa PAO1 infected in Caenorhabditis elegans upto 10 uM incubated for 36 hrs in presence of tetracycline; format: functional, organism-based
Pseudomonas aeruginosa [42] = assay: Synergistic inhibition of bacterial virulence of Pseudomonas aeruginosa PAO1 infected in Caenorhabditis elegans upto 10 uM incubated for 36 hrs in presence of TOB; format: functional, organism-based
Pseudomonas aeruginosa [43] = assay: Synergistic inhibition of bacterial virulence of hyper-biofilm phenotype Pseudomonas aeruginosa PAO1 harboring wspF mutant upto 10 uM incubated for 36 hrs in presence of tetracycline; format: functional, organism-based
Pseudomonas aeruginosa [44] = assay: Synergistic inhibition of bacterial virulence of hyper-biofilm phenotype Pseudomonas aeruginosa PAO1 harboring wspF mutant upto 10 uM incubated for 36 hrs in presence of TOB; format: functional, organism-based
[45] = Toxicity in Caenorhabditis elegans infected with Pseudomonas aeruginosa PAO1 assessed as nematode survival at 2 ug incubated for 48 hrs; conditions: in vivo, at 2 µg

With `C[n+]1c(/C=C/c2c[nH]c3ccccc23)ccc2ccccc21.[I-]` the inhibition [1] was 44.5%, the inhibition at 1.25 µM (Pseudomonas aeruginosa [2]) was ~21% and the inhibition at 10 µM (Pseudomonas aeruginosa [3]) was ~40%. The inhibition (Pseudomonas aeruginosa [4]) was “Dose-dependent-effect”, the pIC50 (Pseudomonas aeruginosa [4]; PAO1, 24 h) was 4.83 and the MIC (Pseudomonas aeruginosa [5]) was > 128 µM. The Activity (Pseudomonas aeruginosa [6]) was “Dose-dependent-effect”, the Activity (Pseudomonas aeruginosa [7]) was “Dose-dependent-effect” and the Activity (Pseudomonas aeruginosa [8]) was “Dose-dependent-effect”. The Activity (Pseudomonas aeruginosa [9]) was 59.02%, the Activity (Pseudomonas aeruginosa [10]) was ~40% and the Activity (Pseudomonas aeruginosa [11]) was “Active; Exhibited Relatively Modest Activity”. The Activity (Pseudomonas aeruginosa [12]) was 62.38%, the inhibition (Pseudomonas aeruginosa [13]) was 20.4% and the inhibition (Pseudomonas aeruginosa [14]) was 30%. The inhibition (Pseudomonas aeruginosa [15]) was 30%, the inhibition (Pseudomonas aeruginosa [16]) was “Dose-dependent-effect” and the inhibition (Pseudomonas aeruginosa [17]) was “Dose-dependent-effect”. The inhibition (Pseudomonas aeruginosa [18]) was 10%, the inhibition (Pseudomonas aeruginosa [19]) was “Dose-dependent-effect” and the inhibition (Pseudomonas aeruginosa [20]) was “Dose-dependent-effect”. The inhibition (Pseudomonas aeruginosa [21]) was “Dose-dependent-effect”, the inhibition (Pseudomonas aeruginosa [22]) was “Active; Inhibitory Effect Was Comparable To Qs Deficient Pao1 Double Mutant Lasi/Rhli” and the inhibition at 10 µM (Pseudomonas aeruginosa [23]) was 29.2%. For the same compound, the inhibition (Pseudomonas aeruginosa [24]) was “Active; Exhibited Only A Modest Impact”, the Activity (Pseudomonas aeruginosa [25]) was “Active” and the Activity (Pseudomonas aeruginosa [26]) was “Active”. The Activity (Pseudomonas aeruginosa [27]) was “Active”, the Activity (Pseudomonas aeruginosa [28]) was “Active” and the Activity (Pseudomonas aeruginosa [29]) was “Active”. The Activity (Pseudomonas aeruginosa [30]) was “Active”, the Activity (DNA [31]) was “Not toxic” and the Activity (DNA [32]) was “Not toxic”. The Activity [33] was “Non-toxic”, the Activity (Vero) was “Non-toxic” and the Activity (Pseudomonas aeruginosa [34]) was “Active”. For the same compound, the Activity [35] was “Non-toxic”, the Activity [36] was “Toxic” and the Survival [37] was 95%. The Activity [38] was ~ 50%, the Activity [39] was “Non-toxic” and the Activity [40] was “Non-toxic”. For the same compound, the Activity (Pseudomonas aeruginosa [41]) was “Active”, the Activity (Pseudomonas aeruginosa [42]) was “Active” and the Activity (Pseudomonas aeruginosa [43]) was “Active”. For the same compound, the Activity (Pseudomonas aeruginosa [44]) was “Active”.

For `CN(C)[C@@H]1C(O)=C(C(N)=O)C(=O)[C@@]2(O)C(O)=C3C(=O)c4c(O)cccc4[C@@](C)(O)[C@H]3C[C@@H]12` [TETRACYCLINE], the MIC (Pseudomonas aeruginosa [5]) was > 128 µM and the Survival [45] was ~ 10%.
